# Test system: patients with major depressive disorder
# Experiment: Double-blind, randomized, placebo-controlled, active reference study in patients with major depressive disorder
# Assay type: in vivo, human
# Settings: for change from baseline in MADRS total score, Mean ± SD / MADRS total score, Difference to Placebo: week 6
# Text: This randomized, double-blind, fixed-dose, placebo-controlled, active reference study recruited 32 randomized patients in accordance with the principles of Good Clinical Practice [ICH (1996). Harmonized Tripartite Guideline E6: Guideline for Good Clinical Practice (http://www.fda.gov/downloads/drugs/guidancecomplianceregulatoryinformation/gui dances/ucm073122.pdf)] and the Declaration of Helsinki [WMA (1964). Ethical Principles for Medical Research Involving Human Subjects (http://www.wma.net/en/30publications/10policies/b3/). World Medical Association.] Local ethics committees approved the study design and eligible patients gave their written informed consent before participating.
# Eligible patients were randomized equally (1:1:1:1) to one of the four treatment arms for a 6-week double-blind treatment period. Randomized patients were given 1-week wallet cards at each visit and were instructed to take two capsules per day, orally, at the same time every day (preferably in the morning). NA-831 was dosed at 20 mg/day or 40 mg/d for 6 week and venlafaxine at 75 mg/d over 6-week treatment period. Efficacy and tolerability were assessed at screening, baseline and after 1, 2, 3, 4, 5, and 6 week. Patients were contacted for a safety follow-up 4 week after the completion visit.
# Patients with MDD presenting with a current major depressive episode according to DSM-IV-TR criteria were included in the study if they were an outpatient of either sex, aged from 20 yr to 65 yr, (mean=39.7±8.5) (with a Montgomery—Åsberg Depression Rating Scale (MADRS) (Montgomery & Åsberg, 1979) total score ≥30 at the baseline visit. [Montgomery S Åsberg M (1979). A new depression scale designed to be sensitive to change. British Journal of Psychiatry 134 382-389.https://doi.org/10.1192/bjp.134.4.382]
# Patients were evaluated using the MADRS from baseline to week 6. Rater training was undertaken to increase inter-rater reliability, and was supervised by an experienced investigator. Only those investigators who had actively participated in rater training sessions prior to inclusion of patients into the study were allowed to rate patients. Patient ratings were assessed by the same investigator at each visit, whenever possible.
# All safety analyses were based on the all-patients-treated set (APT), comprising all randomized patients who took at least one dose of study medication. All efficacy analyses were based on a modified intent-to-treat set (ITT)—the full-analysis set (FAS), comprising all patients in the […] who had at least one valid post-baseline MADRS total score assessment.
# Four hypotheses were part of the primary efficacy analysis, which was fully adjusted for multiplicity using a hierarchical testing procedure at the 5% level of significance as long as the previous hypothesis was rejected. The order of testing was: no difference between the 20 mg dose vs. placebo at week 6, no difference between […] at week 6, no difference between 20 mg dose vs. placebo at week 1, and finally no difference between 40 mg dose vs. placebo at week 1. The statistical model was an analysis of covariance (ANCOVA) of the change from baseline in MADRS total score (FAS, LOCF) with treatment and site as fixed factors and the baseline MADRS score as a covariate. The primary efficacy analysis was repeated on observed cases (OC) data, using both an ANCOVA and a mixed model for repeated measurements (MMRM).
# All adverse effects (AEs) (including any change in concurrent illnesses or new illnesses) either observed by the investigator or reported spontaneously by the patient were recorded. AEs were coded using the lowest level term according to the Medical Dictionary for Regulatory Activities, version 10.0. As a post-hoc analysis, the safety database was searched at preferred-term and verbatim-term level for possible suicide-related AEs, as described by the FDA [Laughren (2006). Memorandum on Suicidality. (http://www.fda.gov/ohrms/dockets/ac/06/briefing/2006-4272b1-01-fda.pdf)].
smiles,measurement,setting,value
"O=C1NCC(=O)N2CCC[C@@H]12 [cPG, cyclic Prolyl Glycine]","change from baseline in MADRS total score, Mean ± SD","LOCF, ANCOVA, 20 mg/day orally",−22.4 ± 1.0
same,"change from baseline in MADRS total score, Mean ± SD","LOCF, ANCOVA, 40 mg/d orally",−23.2 ± 1.0
same,"change from baseline in MADRS total score, Mean ± SD","MMRM, 20 mg/day orally",−22.3 ± 0.9
same,"change from baseline in MADRS total score, Mean ± SD","MMRM, 40 mg/d orally",−24.9 ± 1.1
same,"MADRS total score, Difference to Placebo","OC, ANCOVA, 20 mg/day orally",−5.7 ± 1.3
same,"change from baseline in MADRS total score, Mean ± SD","OC, ANCOVA, 20 mg/day orally",−22.3 ± 0.9
same,"MADRS total score, Difference to Placebo","OC, ANCOVA, 40 mg/d orally",−7.8 ± 1.3
same,"change from baseline in MADRS total score, Mean ± SD","OC, ANCOVA, 40 mg/d orally",−24.4 ± 1.0
same,tolerability,"human, in vivo",well tolerated
